Like-named read-outs stand apart in the source and are kept apart here.
Experiments:
[1] = molecular target: T1, muscarinic receptors, heart atrium (Rattus norvegicus, UniProt P10980); test: Receptor bonding test in vivo, heart atrium (3H-NMS); set-up: species or system female rats; conditions: rat, iv, 0.5 h, read-out: ID50 Heart Atrium
T1 construct: from tissue; host or cells: heart (atrium, ventricle) of female rats, labelled in vivo
T1 sequence (P10980 1-466): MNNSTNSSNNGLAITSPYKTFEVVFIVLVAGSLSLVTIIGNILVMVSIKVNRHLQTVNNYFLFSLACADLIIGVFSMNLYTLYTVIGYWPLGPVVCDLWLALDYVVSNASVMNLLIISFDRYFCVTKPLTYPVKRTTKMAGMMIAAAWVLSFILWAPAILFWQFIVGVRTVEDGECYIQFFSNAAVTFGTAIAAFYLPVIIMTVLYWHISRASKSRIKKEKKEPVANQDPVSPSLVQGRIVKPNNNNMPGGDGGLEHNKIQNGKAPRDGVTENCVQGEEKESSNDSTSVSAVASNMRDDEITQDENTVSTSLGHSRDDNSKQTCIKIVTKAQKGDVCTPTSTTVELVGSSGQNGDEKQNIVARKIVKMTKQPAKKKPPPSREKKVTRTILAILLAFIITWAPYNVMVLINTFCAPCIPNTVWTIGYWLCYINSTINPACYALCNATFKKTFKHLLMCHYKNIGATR
Procedure: (§1) For these experiments, female rats with a body weight of about 200 g were used. Before the start of the test the animals were anaesthetised with a dosage of 1.25 g/kg of urethane. The animals were each given the prescribed dosage of test substance by intravenous injection. After 15 minutes, 113 ng/kg of ^3 H-N-methylscopolamine (^3 H-NMS) were administered by the same route. After another 15 minutes the animals were killed and the heart, bronchi and lachrymal glands were removed. These organs were dissolved in Soluene R and the radioactivity was determined. The measurements were assumed to be total bonding. […] ID50 values were determined for the individual organs using these tests.

[2] = molecular target: T2, M1 (rise in blood pressure by McN-A-343) (Rattus norvegicus, UniProt P08482); test: M1/M2 selectivity in the rat: inhibition of McN-A-343 blood pressure increase (M1); type: in vivo, male THOM rats; conditions: iv, 5 min
T2 construct: from tissue
T2 sequence (P08482 1-460): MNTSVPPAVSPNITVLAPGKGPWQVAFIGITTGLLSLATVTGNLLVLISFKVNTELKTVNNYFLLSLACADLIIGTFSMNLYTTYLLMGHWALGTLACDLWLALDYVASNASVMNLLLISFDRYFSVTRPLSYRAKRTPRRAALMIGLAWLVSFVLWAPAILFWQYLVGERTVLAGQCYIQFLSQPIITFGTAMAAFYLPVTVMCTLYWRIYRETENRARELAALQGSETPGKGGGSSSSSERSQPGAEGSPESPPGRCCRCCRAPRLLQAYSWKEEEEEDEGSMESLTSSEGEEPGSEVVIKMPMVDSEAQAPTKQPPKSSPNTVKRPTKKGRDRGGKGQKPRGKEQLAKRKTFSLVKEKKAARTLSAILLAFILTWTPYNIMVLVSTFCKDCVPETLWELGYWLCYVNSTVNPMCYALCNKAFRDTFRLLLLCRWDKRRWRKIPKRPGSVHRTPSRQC

[3] = molecular target: T3, muscarinic receptors, lachrymal glands (Rattus norvegicus, UniProt P08483); test: Receptor bonding test in vivo, lachrymal glands (3H-NMS); set-up: species or system female rats; conditions: iv, 0.5 h, read-out: ID50 Lachrymal glands
T3 construct: from tissue; host or cells: lachrymal glands of female rats, labelled in vivo
Procedure: as §1

[4] = system: muscarinic receptors, bronchi; test: Receptor bonding test in vivo, bronchi (3H-NMS); set-up: species or system female rats; conditions: in vivo binding, i.v., rat, 113 ng/kg 3H-NMS; 30 min
Procedure: as §1

M2 (vagal bradycardia) = molecular target: T4, M2 (vagal bradycardia) (Rattus norvegicus, UniProt P10980); test: M1/M2 selectivity in the rat: inhibition of vagally stimulated bradycardia (M2); type: in vivo, male THOM rats; conditions: iv, 5 min, read-out: M2 activity (rat) ED50
T4 construct: The bradycardia produced by vagus stimulation; from tissue; host or cells: whole animal (male THOM rats), heart
T4 sequence (P10980 1-466): T1 sequence (P10980 1-466)
Procedure: The method used was described by Hammer and Giachetti (Life Sciences 31, 2991-2998 (1982)). 5 minutes after intravenous injection of increasing doses of the substance, either the right vagus was electrically stimulated (frequency: 25 Hz; pulse width: 2 ms; duration of stimulus: 30 s; number of volts: supramaximal) or 0.3 mg/kg of McN-A-343 was injected intravenously into male THOM rats. The bradycardia produced by vagus stimulation and the increase in blood pressure produced by McN-A-343 were measured.

[5] = molecular target: T5, muscarinic receptors of the atrium (Cavia porcellus, UniProt H0VRN8); test: Dissociation constants (KB) on spontaneously beating right atrium, methacholine antagonism; set-up: species or system guinea pig
T5 construct: In the isolated, spontaneously beating right atrium; from tissue; host or cells: isolated right atrium of guinea pig
T5 sequence (H0VRN8 1-466): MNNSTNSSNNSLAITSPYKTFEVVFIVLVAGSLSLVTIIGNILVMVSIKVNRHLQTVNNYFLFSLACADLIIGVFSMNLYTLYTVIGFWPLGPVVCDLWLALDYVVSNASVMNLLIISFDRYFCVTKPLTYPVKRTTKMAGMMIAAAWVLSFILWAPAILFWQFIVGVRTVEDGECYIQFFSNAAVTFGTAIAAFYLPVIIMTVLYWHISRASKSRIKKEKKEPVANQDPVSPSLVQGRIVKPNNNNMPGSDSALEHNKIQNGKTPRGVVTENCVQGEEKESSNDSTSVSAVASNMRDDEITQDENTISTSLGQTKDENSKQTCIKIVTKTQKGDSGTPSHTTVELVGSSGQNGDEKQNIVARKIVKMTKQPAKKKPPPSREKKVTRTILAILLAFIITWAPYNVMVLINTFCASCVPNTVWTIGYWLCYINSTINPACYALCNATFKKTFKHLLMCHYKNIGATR
Procedure: Dissociation constants (KB values) were determined in vitro on the guinea pig ileum and spontaneously beating atrium. The ileum was removed and incubated in Krebs-Henseleit solution in an organ bath. Contractions were produced by means of increasing concentrations of methacholine (M) so that a full concentration-activity curve could be plotted. Then M was washed out, the test substance was added and kept in contact for 30 minutes and again a concentration-activity curve was plotted with M. The dissociation constant was calculated according to Arunlakshana and Schild (Brit. J. Pharmacol. 14, 48, 1959) from the dosage ratio (DR), i.e. the extent of displacement of the concentration-activity curve.
In the isolated, spontaneously beating right atrium M reduced the heart rate as a function of the concentration. This effect was stopped by the addition of an antimuscarinic. Dissociation constants for the muscarinic receptors of the atrium were obtained in the same way as described above. A comparison of the dissociation constants measured in the two different tissues made it possible to identify cardioselective substances.

[6] = molecular target: T6, muscarinic receptors, heart ventricle (Rattus norvegicus, UniProt P10980); test: Receptor bonding test in vivo, heart ventricle (3H-NMS); set-up: species or system female rats; conditions: iv, 0.5 h, read-out: ID50 Heart Ventricle
T6 construct: the heart, bronchi and lachrymal glands were removed; from tissue; host or cells: heart (atrium, ventricle) of female rats, labelled in vivo
T6 sequence (P10980 1-466): T1 sequence (P10980 1-466)
Procedure: as §1

Solubility in water = conditions: in words
salivation = test: Salivation-inhibiting effect on the rat (pilocarpine); type: in vivo, male THOM rats; conditions: Rattus norvegicus, iv, read-out: Salivation inhibition (rat) ED50
Procedure: The secretion of saliva was triggered by subcutaneous administration of 2 mg/kg of pilocarpine. The saliva was soaked up with blotting paper and the area occupied by the saliva was determined by planimetry every 5 minutes. The dosage of substance which reduced the volume of saliva by 50% was determined graphically.

[7] = molecular target: T7, muscarinic receptors, heart (Rattus norvegicus, UniProt P10980); test: Receptor bonding test in vitro, heart (displacement of 3H-N-methylscopolamine); type: binding, Sprague-Dawley rats; conditions: 0.3 nmolar 3H-NMS, 30° C., 45 min, heart
T7 construct: After removal of the heart and submandibular gland; from tissue; host or cells: whole heart of male Sprague-Dawley rats, homogenate
T7 sequence (P10980 1-466): T1 sequence (P10980 1-466)

[8] = molecular target: T8, muscarinic receptors, submandibular gland (Rattus norvegicus, UniProt P08483); test: Receptor bonding test in vitro, submandibular gland (displacement of 3H-N-methylscopolamine); type: binding, Sprague-Dawley rats; conditions: 0.3 nmolar 3H-NMS, 30° C., 45 min
T8 construct: After removal of the heart and submandibular gland; from tissue; host or cells: submandibular gland of male Sprague-Dawley rats, homogenate
T8 sequence (P08483 whole entry): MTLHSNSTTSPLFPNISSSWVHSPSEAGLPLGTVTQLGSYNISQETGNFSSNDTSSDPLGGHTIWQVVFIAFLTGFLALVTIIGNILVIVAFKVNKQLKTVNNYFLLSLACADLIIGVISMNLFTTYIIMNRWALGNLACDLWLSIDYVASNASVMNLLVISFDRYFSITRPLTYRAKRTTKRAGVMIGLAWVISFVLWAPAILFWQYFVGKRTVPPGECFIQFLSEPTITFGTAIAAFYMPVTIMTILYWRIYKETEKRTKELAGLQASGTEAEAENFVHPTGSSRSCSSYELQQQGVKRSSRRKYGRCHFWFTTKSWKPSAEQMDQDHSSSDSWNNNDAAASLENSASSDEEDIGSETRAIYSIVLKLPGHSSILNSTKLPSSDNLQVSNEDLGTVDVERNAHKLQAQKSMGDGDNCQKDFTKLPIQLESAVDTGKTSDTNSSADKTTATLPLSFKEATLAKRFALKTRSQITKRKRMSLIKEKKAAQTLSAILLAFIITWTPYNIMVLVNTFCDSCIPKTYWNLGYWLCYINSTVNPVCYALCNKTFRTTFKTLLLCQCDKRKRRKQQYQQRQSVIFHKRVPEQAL

T3 sequence (P08483 whole entry): as above

Which ED50 [1] does the source give for `CN1C2CCC1CC(OC(=O)C(CO)c1ccccc1)C2` (stereo not drawn) [Substance Z, atropine, reference compound] here?
Its ED50 is 0.08 mg/kg.

And the ED50 ([2]; read-out: M1 activity (rat) ED50)?
The ED50 was 0.016 mg/kg.

What about the ED50 [3] of the same compound?
The ED50 was 0.2 mg/kg.

What about the “ID50 Bronchi” value [4] of the same compound?
Its value is 0.1 mg/kg.

What about the ED50 (M2 (vagal bradycardia)) of the same compound?
Its ED50 is 0.004 mg/kg.

What about the Kb [5] of the same compound?
The Kb was 1.41 nM.

What about the ED50 [6] of the same compound?
The ED50 was 0.03 mg/kg.

With `CN(C)CC1CCCCN1CCCCNC(=O)N1c2ccccc2C(=O)Nc2cccnc21` (racemic) [Example 20, D,L-5,11-Dihydro-11-[[[4-[2-[(dimethylamino)methyl]-piperidin-1-yl]butyl]amino]carbonyl]-6H-pyrido[2,3-b][1,4]benzodiazepin-6-one] as the compound, how does the solubility in water (Solubility in water) read?
The solubility in water was “soluble in water”.

For `CN1CCN(CC(=O)N2c3ccccc3C(=O)Nc3cccnc32)CC1` [Substance Y, 5,11-dihydro-11-[(4-methyl-piperazin-1-yl)acetyl]-6H-pyrido[2,3-b][1,4]benzodiazepin-6-one, reference compound], which ED50 (salivation) is on record?
The ED50 was 0.084 mg/kg.

What about the Kb [5] of the same compound?
Its Kb is 240 nM.

Which solubility in water (Solubility in water) does the source give for `CCN(CC)CC1CCCCN1CCCNC(=O)N1c2ccccc2NC(=O)c2ccccc21` (stereo not drawn) [Example 8, 5-[[[3-[2-[(Diethylamino)methyl]-piperidin-1-yl]propyl]amino]carbonyl]-5,10-dihydro-11H-dibenzo[b,e][1,4]diazepin-11-one] here?
The solubility in water was “Soluble in water”.

With `Cl.O=C1Nc2cccnc2N(C(=O)NCCN2CCCCC2CN2CCCCC2)c2ccccc21` (stereo not drawn) [Example 39, 5,11-Dihydro-11-[[[2-[2-[(piperidin-1-yl)methyl]-piperidin-1-yl]ethyl]amino]carbonyl]-6H-pyrido[2,3-b][1,4]benzodiazepin-6-one hydrochloride] as the compound, how does the solubility in water (Solubility in water) read?
Its solubility in water is “soluble in water”.

Which ED50 ([2]; i.v., 50% reduction in blood pressure rise by 0.3 mg/kg McN-A-343, read-out: M1 activity (rat) ED50) does the source give for `CCN(CC)CC1CCCCN1CC(=O)N1c2ccccc2C(=O)Nc2cccnc21` (stereo not drawn) [Substance X, 11-[[2-[(diethylamino)methyl]-piperidin-1-yl]acetyl]-5,11-dihydro-6H-pyrido[2,3-b][1,4]benzodiazepin-6-one, reference compound] here?
The ED50 was 0.988 mg/kg.

And the ED50 [3]?
The ED50 was greater than 30 mg/kg.

What about the ED50 (M2 (vagal bradycardia); i.v., 50% reduction in vagal bradycardia) of the same compound?
Its ED50 is 0.16 mg/kg.

What about the IC50 [7] of the same compound?
The IC50 was 150 nM.

What about the Kb ([5]; guinea pig spontaneously beating atrium, methacholine, 30 min contact, read-out: KB Heart (dissociation constant)) of the same compound?
The Kb was 105 nM.

What about the IC50 [8] of the same compound?
The IC50 was 5000 nM.

— patent US4873236A, “Condensed diazepinones, processes for preparing them and pharmaceutical compositions containing these compounds” (Dr. Karl Thomae GmbH, priority 1986, dated 1989)
